The text below walks through data of US20220241260A9, “Pharmaceutical Compositions Of Metabotropic Glutamate 5 Receptor (MGLU5) Antagonists” (F. HOFFMANN-LA ROCHE AG, priority 2010, published 2022).

A short description of the data set: BCS classification. Conditions: because of pH dependent solubility in physiological range. It counts as physicochemical.

Take `Cc1nc(C#Cc2ccnc(Cl)c2)c(C)n1-c1ccc(F)cc1` [2-Chloro-4-[1-(4-fluoro-phenyl)-2,5-dimethyl-1H-imidazol-4-ylethynyl]-pyridine]: the BCS class result was “BCS class 2”.
